Measured values: US8022205B2, “Pyrimidine derivatives as PI3K inhibitor and use thereof” (Chugai Seiyaku Kabushiki Kaisha, priority 2006, dated 2011)

Experiments:
[1] = test system: human colon cancer cell line HCT116; assay: Cell proliferation inhibitory activity (Cell Counting Kit-8), colon cancer HCT116; format: cell-based; settings: HCT-116, 96 h, HCT116, 4 days
Summary of the method: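 HCT116 cells (2000/well) were exposed to compounds for 4 days at 37 °C under CO2. Viability was then read with CCK-8 as absorbance at 450 nm (reference 615 nm).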

human PI3K(p110α/p85α) = human PI3K(p110α/p85α) (Homo sapiens, UniProt P42336); assay: Measurement of PI3K inhibitory activity (AlphaScreen GST Detection Kit); format: biochemical; settings: 10 μM ATP, 4 μM PI(4,5)P2, read-out: Enzyme inhibitory activity (IC50, μM) PI3K α
Summary of the method: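 Baculovirus-expressed human p110α/p85α was preincubated with compound for 20 min at room temperature, then reacted with 4 μM PI(4,5)P2 and 10 μM ATP (pH 7.5, 2.5 mM MgCl2) for 15 min at 37 °C. PIP3 product was detected by AlphaScreen competition of GST-GRP1 with biotin-PI(3,4,5)P3 after 1 h at room temperature.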

[2] = test system: human prostate cancer cell line PC3; assay: Cell proliferation inhibitory activity (Cell Counting Kit-8), prostate cancer PC3; format: cell-based; settings: 96 h, PC3, 4 days
Summary of the method: (§1)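 PC3 (3000 cells/well) or NCI-H460 (1000 cells/well) exposed to compound for 4 days at 37 °C in CO2. CCK-8 absorbance at 450 nm (reference 615 nm); percent proliferation inhibition calculated at 2.5 µM.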

[3] = test system: human lung cancer cell line NCI-H460; assay: Cell proliferation inhibitory activity (Cell Counting Kit-8), lung cancer NCI-H460; format: cell-based; settings: 96 h, NCI-H460, 4 days, read-out: Cell proliferation inhibitory activity (% Inhibition at 2.5 μM) Non-small cell lung cancer (NCI-H460)
Summary of the method: as §1

Chain of human PI3K(p110α/p85α) (P42336 whole entry): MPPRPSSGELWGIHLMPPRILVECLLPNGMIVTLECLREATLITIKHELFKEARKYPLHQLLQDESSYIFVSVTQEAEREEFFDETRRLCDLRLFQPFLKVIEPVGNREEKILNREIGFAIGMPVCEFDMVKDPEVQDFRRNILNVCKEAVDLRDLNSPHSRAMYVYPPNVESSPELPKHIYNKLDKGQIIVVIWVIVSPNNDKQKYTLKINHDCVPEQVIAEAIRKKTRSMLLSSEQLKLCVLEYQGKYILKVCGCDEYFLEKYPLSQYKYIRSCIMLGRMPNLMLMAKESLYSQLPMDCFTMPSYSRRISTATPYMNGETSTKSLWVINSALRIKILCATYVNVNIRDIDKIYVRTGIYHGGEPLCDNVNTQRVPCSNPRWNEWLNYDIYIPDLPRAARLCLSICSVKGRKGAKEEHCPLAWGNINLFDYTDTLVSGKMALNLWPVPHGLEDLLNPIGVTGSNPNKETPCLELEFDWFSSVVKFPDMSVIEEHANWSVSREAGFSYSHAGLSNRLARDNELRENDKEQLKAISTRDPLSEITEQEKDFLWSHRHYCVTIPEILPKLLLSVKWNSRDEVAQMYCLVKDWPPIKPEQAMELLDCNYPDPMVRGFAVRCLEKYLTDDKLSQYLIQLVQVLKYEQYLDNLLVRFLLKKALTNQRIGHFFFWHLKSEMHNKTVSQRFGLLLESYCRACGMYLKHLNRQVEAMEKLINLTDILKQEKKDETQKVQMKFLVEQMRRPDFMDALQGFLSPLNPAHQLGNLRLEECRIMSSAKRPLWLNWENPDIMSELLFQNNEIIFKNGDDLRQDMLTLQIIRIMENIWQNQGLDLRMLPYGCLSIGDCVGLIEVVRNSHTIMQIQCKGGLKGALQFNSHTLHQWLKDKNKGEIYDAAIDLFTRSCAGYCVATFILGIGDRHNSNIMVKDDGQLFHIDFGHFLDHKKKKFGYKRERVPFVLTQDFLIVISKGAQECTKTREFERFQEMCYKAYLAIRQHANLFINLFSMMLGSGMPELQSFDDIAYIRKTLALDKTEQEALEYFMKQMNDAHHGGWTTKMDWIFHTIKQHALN
Chain of human PI3K(p110α/p85α) (P27986 whole entry partner): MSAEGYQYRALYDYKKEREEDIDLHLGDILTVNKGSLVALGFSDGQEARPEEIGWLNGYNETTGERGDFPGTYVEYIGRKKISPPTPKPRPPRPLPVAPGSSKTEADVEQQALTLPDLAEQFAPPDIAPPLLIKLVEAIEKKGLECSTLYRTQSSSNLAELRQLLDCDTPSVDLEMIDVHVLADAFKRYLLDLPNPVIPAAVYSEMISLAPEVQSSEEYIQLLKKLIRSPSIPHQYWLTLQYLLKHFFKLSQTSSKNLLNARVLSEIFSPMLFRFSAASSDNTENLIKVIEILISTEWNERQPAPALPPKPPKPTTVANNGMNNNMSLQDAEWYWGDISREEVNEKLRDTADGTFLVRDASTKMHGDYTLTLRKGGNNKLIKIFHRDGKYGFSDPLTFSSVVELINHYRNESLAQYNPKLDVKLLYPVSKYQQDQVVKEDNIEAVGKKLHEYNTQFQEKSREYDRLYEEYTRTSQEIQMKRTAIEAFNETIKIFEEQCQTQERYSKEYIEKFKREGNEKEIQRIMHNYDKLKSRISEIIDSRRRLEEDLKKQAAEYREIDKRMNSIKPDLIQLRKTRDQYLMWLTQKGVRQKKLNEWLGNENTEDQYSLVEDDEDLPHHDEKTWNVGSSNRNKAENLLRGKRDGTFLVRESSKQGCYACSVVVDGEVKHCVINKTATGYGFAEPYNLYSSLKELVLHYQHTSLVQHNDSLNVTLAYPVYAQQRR

SMILES	IC50 (human PI3K(p110α/p85α)) [µM]	inhibition at 2.5 µM [1] [%]	inhibition at 2.5 µM [2] [%]	inhibition at 2.5 µM [3] [%]
CN1CCN(c2cc(F)c(NC(=O)N3CCc4c(-c5cnc(N)nc5)nc(N5CCOCC5)nc43)c(F)c2)CC1 [Example D-23, 4-(2-Amino-pyrimidin-5-yl)-2-morpholin-4-yl-5,6-dihydro-pyrrolo[2,3-d]pyrimidine-7-carboxylic acid [4-(4-methyl-piperazin-1-yl)-2,6-difluoro-phenyl]-amide]	0.006	99	89	100
Nc1ncc(-c2nc(N3CCOCC3)nc3c2CCN3c2ccc(C(=O)N3CCN(c4cccnc4)CC3)cc2)cn1 [Example D-20, {4-[4-(2-Amino-pyrimidin-5-yl)-2-morpholin-4-yl-5,6-dihydro-pyrrolo[2,3-d]pyrimidin-7-yl]-phenyl}-(4-pyridin-3-yl-piperazin-1-yl)-methanone]	0.046	83	99	99
Nc1ncc(-c2nc(N3CCOCC3)nc3c2CCN3c2ccc(C(=O)NCc3cccnc3)cc2)cn1 [Example D-19, 4-[4-(2-Amino-pyrimidin-5-yl)-2-morpholin-4-yl-5,6-dihydro-pyrrolo[2,3-d]pyrimidin-7-yl]-N-pyridin-3-ylmethyl-benzamide]	0.06	73	102	97
Nc1ncc(-c2nc(N3CCOCC3)nc3c2CCN3c2ccc(C(=O)N3CCC(N4CCOCC4)CC3)cc2)cn1 [Example D-307, {4-[4-(2-Amino-pyrimidin-5-yl)-2-morpholin-4-yl-5,6-dihydro-pyrrolo[2,3-d]pyrimidin-7-yl]-phenyl}-(4-morpholin-4-yl-piperidin-1-yl)-methanone]	0.009	87	89	58

Further lines, with some results ahead:

IC50 (human PI3K(p110α/p85α)) [µM]	SMILES	inhibition at 2.5 µM [1] [%]	inhibition at 2.5 µM [2] [%]	inhibition at 2.5 µM [3] [%]
0.009	CCN1CCN(c2ccc(C)c(NC(=S)N3CCc4c(-c5cnc(N)nc5)nc(N5CCOCC5)nc43)c2)CC1 [Example D-290, 4-(2-Amino-pyrimidin-5-yl)-2-morpholin-4-yl-5,6-dihydro-pyrrolo[2,3-d]pyrimidine-7-carbothioic acid [5-(4-ethyl-piperazin-1-yl)-2-methyl-phenyl]-amide]	99	99	18
0.36	CN(C)CCNC(=O)c1cccc(-c2nc(N3CCOCC3)nc3c2CCN3c2cccnc2)c1 [Example G-05, N-(2-dimethylaminoethyl)-3-(2-morpholin-4-yl-7-pyridin-3-yl-6,7-dihydro-5H-pyrrolo[2,3-d]pyrimidin-4-yl)-benzamide]	38	49	55
0.24	Nc1ccc(-c2nc(N3CCOCC3)nc3c2CCN3c2ccncc2)cn1 [Example B-03, 5-(2-Morpholin-4-yl-7-pyridin-4-yl-6,7-dihydro-5H-pyrrolo[2,3-d]pyrimidin-4-yl)-pyridin-2-ylamine]	100	95	97
